Source: PMC4685510, “A Cell Biologist’s Field Guide to Aurora Kinase Inhibitors” (Frontiers in Oncology, 2015)

Experiments:
Assay in all cases: biochemical
Assay type in all cases: biochemical
[1] = molecular target: T1, 363 human kinases (including Aurora A/B/C) (Homo sapiens, UniProt O00141); details: SGK1; for remaining activity at 0.1 µM: 100 nM; for remaining activity at 0.1 µM / remaining activity at 0.5 µM: read-out: % Enzyme Activity (relative to DMSO controls)
T1 sequence (O00141 1-431): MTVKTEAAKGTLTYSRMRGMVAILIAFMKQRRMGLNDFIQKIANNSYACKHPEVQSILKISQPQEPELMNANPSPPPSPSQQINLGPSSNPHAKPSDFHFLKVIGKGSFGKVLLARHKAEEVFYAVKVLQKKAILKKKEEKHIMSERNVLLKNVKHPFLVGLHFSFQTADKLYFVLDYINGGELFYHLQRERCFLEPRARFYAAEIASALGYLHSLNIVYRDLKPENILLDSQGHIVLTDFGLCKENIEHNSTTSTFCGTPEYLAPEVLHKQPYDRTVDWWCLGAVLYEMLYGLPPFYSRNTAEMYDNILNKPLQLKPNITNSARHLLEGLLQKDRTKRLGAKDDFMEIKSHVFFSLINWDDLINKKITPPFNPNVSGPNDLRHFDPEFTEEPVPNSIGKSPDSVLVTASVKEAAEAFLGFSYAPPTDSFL
Excerpt: (§1) However, the Aurora A/B selectivity ratios derived from our in vitro and in vivo data can be compared to prioritize inhibitors.

[2] = molecular target: 363 human kinases (including Aurora A/B/C) (Homo sapiens, UniProt P07332); details: FES/FPS, [ATP] 50 µM; for remaining activity at 0.1 µM: 100 nM; for remaining activity at 0.1 µM / remaining activity at 0.5 µM: read-out: % Enzyme Activity (relative to DMSO controls)
Excerpt: as §1

[3] = molecular target: 363 human kinases (including Aurora A/B/C) (Homo sapiens, UniProt P42685); details: FRK/PTK5; for remaining activity at 0.1 µM: 100 nM; for remaining activity at 0.1 µM / remaining activity at 0.5 µM: read-out: % Enzyme Activity (relative to DMSO controls)
Excerpt: as §1

[4] = molecular target: 363 human kinases (including Aurora A/B/C) (Homo sapiens, UniProt P51957); details: NEK4; for remaining activity at 0.1 µM: 100 nM; for remaining activity at 0.1 µM / remaining activity at 0.5 µM: read-out: % Enzyme Activity (relative to DMSO controls)
Excerpt: as §1

[5] = molecular target: T2, 363 human kinases (including Aurora A/B/C) (Homo sapiens, UniProt Q6P3R8); details: NEK5; for remaining activity at 0.1 µM: 100 nM; for remaining activity at 0.1 µM / remaining activity at 0.5 µM: read-out: % Enzyme Activity (relative to DMSO controls)
T2 sequence (Q6P3R8 1-708): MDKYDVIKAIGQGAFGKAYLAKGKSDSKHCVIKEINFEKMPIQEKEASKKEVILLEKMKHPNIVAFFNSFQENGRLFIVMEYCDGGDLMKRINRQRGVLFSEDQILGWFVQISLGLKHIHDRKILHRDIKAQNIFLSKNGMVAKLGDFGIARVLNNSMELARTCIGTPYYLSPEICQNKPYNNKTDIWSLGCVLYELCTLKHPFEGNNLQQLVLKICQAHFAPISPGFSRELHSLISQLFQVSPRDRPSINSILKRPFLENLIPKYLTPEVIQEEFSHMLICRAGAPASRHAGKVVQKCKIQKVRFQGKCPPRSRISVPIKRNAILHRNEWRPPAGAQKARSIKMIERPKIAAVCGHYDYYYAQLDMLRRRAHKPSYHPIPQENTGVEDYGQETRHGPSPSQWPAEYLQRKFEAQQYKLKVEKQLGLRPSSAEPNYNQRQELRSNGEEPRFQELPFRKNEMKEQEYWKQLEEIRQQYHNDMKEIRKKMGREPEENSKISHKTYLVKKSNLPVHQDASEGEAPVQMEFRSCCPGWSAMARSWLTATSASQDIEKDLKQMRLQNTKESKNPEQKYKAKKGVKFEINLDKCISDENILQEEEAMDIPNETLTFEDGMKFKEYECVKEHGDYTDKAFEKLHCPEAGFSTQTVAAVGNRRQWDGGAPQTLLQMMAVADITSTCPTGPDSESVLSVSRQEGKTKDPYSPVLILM
Excerpt: as §1

[6] = molecular target: T3, 363 human kinases (including Aurora A/B/C) (Homo sapiens, UniProt Q9UEE5); details: DRAK1/STK17A, [ATP] 30 µM; for remaining activity at 0.1 µM: 100 nM; for remaining activity at 0.1 µM / remaining activity at 0.5 µM: read-out: % Enzyme Activity (relative to DMSO controls)
T3 sequence (Q9UEE5 1-414): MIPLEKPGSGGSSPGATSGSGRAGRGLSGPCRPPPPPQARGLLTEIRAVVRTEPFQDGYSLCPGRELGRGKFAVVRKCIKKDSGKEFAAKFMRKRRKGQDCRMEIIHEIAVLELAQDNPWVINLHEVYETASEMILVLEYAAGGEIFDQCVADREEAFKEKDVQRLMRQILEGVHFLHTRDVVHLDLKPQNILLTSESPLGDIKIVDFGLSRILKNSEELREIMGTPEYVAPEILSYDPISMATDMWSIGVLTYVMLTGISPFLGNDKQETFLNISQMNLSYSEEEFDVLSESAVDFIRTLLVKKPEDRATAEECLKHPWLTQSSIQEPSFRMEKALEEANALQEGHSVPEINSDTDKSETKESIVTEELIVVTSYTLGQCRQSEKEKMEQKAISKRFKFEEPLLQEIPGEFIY
Excerpt: as §1

363 human kinases (including Aurora A/B/C) (Homo sapiens, UniProt P42685), sequence (P42685 whole entry): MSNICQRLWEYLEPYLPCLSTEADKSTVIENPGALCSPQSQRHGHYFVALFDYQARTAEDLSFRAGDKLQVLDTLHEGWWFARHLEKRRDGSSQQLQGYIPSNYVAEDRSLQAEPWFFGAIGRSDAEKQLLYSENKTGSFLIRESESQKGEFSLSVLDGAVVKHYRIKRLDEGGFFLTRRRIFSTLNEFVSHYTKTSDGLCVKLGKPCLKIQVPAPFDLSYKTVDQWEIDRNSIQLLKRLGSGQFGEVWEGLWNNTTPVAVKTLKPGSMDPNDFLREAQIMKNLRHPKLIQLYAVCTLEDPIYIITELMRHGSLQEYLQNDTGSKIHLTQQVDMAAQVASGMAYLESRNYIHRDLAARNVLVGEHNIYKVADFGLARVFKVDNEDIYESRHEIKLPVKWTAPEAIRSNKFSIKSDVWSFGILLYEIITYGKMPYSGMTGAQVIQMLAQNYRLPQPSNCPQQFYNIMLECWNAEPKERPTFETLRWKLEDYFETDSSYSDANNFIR
363 human kinases (including Aurora A/B/C) (Homo sapiens, UniProt P07332), sequence (P07332 whole entry): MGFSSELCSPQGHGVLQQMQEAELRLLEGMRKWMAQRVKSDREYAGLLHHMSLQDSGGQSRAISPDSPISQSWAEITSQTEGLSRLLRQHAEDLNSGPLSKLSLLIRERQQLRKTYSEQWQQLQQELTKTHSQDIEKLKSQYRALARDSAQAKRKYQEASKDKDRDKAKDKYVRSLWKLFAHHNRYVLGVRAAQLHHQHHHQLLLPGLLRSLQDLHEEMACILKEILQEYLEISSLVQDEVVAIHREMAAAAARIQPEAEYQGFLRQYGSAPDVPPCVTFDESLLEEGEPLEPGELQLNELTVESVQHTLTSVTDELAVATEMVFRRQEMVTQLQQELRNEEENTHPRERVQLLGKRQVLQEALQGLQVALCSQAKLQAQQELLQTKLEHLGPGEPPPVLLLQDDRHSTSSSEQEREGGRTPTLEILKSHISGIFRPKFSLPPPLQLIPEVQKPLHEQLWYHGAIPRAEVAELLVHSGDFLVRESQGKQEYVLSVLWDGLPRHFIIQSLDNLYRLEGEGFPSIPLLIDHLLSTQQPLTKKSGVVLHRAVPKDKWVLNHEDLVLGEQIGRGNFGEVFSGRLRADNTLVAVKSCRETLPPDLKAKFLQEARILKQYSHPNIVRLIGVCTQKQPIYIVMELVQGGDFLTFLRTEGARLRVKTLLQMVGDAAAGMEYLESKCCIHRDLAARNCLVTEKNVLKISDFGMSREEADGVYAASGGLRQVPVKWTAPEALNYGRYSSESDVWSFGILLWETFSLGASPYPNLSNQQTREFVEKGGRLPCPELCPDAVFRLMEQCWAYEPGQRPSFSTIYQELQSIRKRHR
363 human kinases (including Aurora A/B/C) (Homo sapiens, UniProt P51957), sequence (P51957 whole entry): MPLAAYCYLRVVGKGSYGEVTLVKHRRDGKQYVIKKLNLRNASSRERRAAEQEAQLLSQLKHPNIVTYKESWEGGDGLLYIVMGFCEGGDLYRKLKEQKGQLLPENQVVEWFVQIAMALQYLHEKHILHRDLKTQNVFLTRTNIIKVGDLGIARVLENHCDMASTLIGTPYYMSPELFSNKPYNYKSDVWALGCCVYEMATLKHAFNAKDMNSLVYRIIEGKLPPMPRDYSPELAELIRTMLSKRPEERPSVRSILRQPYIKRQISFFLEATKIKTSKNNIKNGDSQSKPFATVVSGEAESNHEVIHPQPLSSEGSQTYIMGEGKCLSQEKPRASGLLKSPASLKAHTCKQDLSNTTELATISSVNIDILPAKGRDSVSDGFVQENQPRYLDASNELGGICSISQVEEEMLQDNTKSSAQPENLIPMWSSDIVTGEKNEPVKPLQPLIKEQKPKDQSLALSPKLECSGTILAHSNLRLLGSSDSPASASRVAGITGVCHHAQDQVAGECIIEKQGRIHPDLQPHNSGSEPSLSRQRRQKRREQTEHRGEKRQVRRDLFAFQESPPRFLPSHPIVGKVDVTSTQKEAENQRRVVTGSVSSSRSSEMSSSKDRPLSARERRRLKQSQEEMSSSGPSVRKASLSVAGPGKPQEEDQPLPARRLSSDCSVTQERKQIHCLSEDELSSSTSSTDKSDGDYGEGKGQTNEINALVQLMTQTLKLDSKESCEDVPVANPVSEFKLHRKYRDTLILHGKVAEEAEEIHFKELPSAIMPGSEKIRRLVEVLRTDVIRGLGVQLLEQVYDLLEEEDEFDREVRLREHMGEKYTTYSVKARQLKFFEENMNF

Question: Which results are given for `CCn1cc(-c2ccnc3[nH]c(-c4cccc(CN(C)C)c4)cc23)c(-c2ccc(NC(=O)N(C)C)cc2)n1` [GSK1070916]?
Answer: remaining activity at 0.1 µM [1]: 118%; remaining activity at 0.1 µM [2]: 90%; remaining activity at 0.1 µM [3]: 99.9%; remaining activity at 0.1 µM [4]: 111%; remaining activity at 0.1 µM [5]: 59.1%; remaining activity at 0.1 µM [6]: 109%

Question: What does the source list for `O=C(c1cccc(Cl)c1F)N1CCN(Cc2cccc(Nc3nccs3)n2)CC1` [MK-8745]?
Answer: % Enzyme Activity (relative to DMSO controls) ([1]; 500 nM): 103.73%; remaining activity at 0.5 µM ([1]; 500 nM): 104%; % Enzyme Activity (relative to DMSO controls) ([2]; 500 nM): 85.63%; remaining activity at 0.5 µM ([2]; 500 nM): 86%; % Enzyme Activity (relative to DMSO controls) ([3]; 500 nM): 94.09%; remaining activity at 0.5 µM ([3]; 500 nM): 98.1%; % Enzyme Activity (relative to DMSO controls) ([4]; 500 nM): 103.20%; remaining activity at 0.5 µM ([4]; 500 nM): 107%; % Enzyme Activity (relative to DMSO controls) ([5]; 500 nM): 128.29%; remaining activity at 0.5 µM ([5]; 500 nM): 130%; % Enzyme Activity (relative to DMSO controls) ([6]; 500 nM): 102.39%; remaining activity at 0.5 µM ([6]; 500 nM): 104%

Question: For `O=C(O)[C@]1(Cc2cccc(Nc3nccs3)n2)CC[C@@H](Oc2cccc(Cl)c2F)CC1` [MK-5108], which remaining activity at 0.1 µM [1] is on record?
Answer: 104%

Question: And the remaining activity at 0.5 µM ([1]; 500 nM)?
Answer: 113%

Question: And the remaining activity at 0.1 µM [2]?
Answer: 96%

Question: What about the remaining activity at 0.5 µM ([2]; 500 nM) of the same molecule?
Answer: 73.7%

Question: And the remaining activity at 0.1 µM [3]?
Answer: 41%

Question: And the remaining activity at 0.5 µM ([3]; 500 nM)?
Answer: 19.8%

Question: What about the remaining activity at 0.1 µM [4] of the same molecule?
Answer: 96.7%

Question: What about the remaining activity at 0.5 µM ([4]; 500 nM) of the same molecule?
Answer: 113%

Question: And the remaining activity at 0.1 µM [5]?
Answer: 153%

Question: And the remaining activity at 0.5 µM ([5]; 500 nM)?
Answer: 104%

Question: What about the remaining activity at 0.1 µM [6] of the same molecule?
Answer: 105%

Question: What about the remaining activity at 0.5 µM ([6]; 500 nM) of the same molecule?
Answer: 102%
